Laboratory results published in the NIST ThermoML archive (doi:10.1016/j.jct.2011.01.014).

Assay: xn = mol fraction of the nth substance listed
Conditions: 101 kPa, Liquid; for mass density: Vibrating tube method; for speed of sound: sound velocity cell

CC(=O)[O-].[NH3+]CCO [2-hydroxyethylammonium acetate] + CO
Conditions | mass density [kg/m3] | speed of sound [m/s]
288.15 K, x1 = 0.0492 | 850.323 | 1214.8
288.15 K, x1 = 0.0951 | 891.619 | 1276.8
288.15 K, x1 = 0.1987 | 958.564 | 1390.3
288.15 K, x1 = 0.29 | 1002.52 | 1476.1
288.15 K, x1 = 0.3786 | 1034.79 | 1545.4
288.15 K, x1 = 0.4825 | 1066.13 | 1618.4
288.15 K, x1 = 0.6007 | 1093.45 | 1688
288.15 K, x1 = 0.6711 | 1107.68 | 1725.1
288.15 K, x1 = 0.7797 | 1126.68 | 1740.8
288.15 K, x1 = 0.8297 | 1134.06 | 1797.8
288.15 K, x1 = 0.9328 | 1147.97 | 1795.3
288.15 K, x1 = 1 | 1154.7 | 1817.2
290.65 K, x1 = 0.0492 | 848.152 | 1207.2
290.65 K, x1 = 0.0951 | 889.567 | 1269.4
290.65 K, x1 = 0.1987 | 956.698 | 1383.4
290.65 K, x1 = 0.29 | 1000.78 | 1469.5
290.65 K, x1 = 0.3786 | 1033.16 | 1538.9
290.65 K, x1 = 0.4825 | 1064.58 | 1612.3
290.65 K, x1 = 0.6007 | 1091.92 | 1681.6
290.65 K, x1 = 0.6711 | 1106.19 | 1718.6
290.65 K, x1 = 0.7797 | 1125.18 | 1734.6
290.65 K, x1 = 0.8297 | 1132.65 | 1790.7
290.65 K, x1 = 0.9328 | 1146.53 | 1787.9
290.65 K, x1 = 1 | 1153.28 | 1810
293.15 K, x1 = 0.0492 | 845.97 | 1199.8
293.15 K, x1 = 0.0951 | 887.505 | 1262.1
293.15 K, x1 = 0.1987 | 954.823 | 1376.3
293.15 K, x1 = 0.29 | 999.035 | 1462.8
293.15 K, x1 = 0.3786 | 1031.5 | 1532.4
293.15 K, x1 = 0.4825 | 1063.02 | 1606.2
293.15 K, x1 = 0.6007 | 1090.45 | 1675.2
293.15 K, x1 = 0.6711 | 1104.7 | 1712.1
293.15 K, x1 = 0.7797 | 1123.69 | 1728.6
293.15 K, x1 = 0.8297 | 1131.24 | 1784
293.15 K, x1 = 0.9328 | 1145.1 | 1781.1
293.15 K, x1 = 1 | 1151.87 | 1803.2
295.65 K, x1 = 0.0492 | 843.786 | 1192.1
295.65 K, x1 = 0.0951 | 885.441 | 1254.6
295.65 K, x1 = 0.1987 | 952.95 | 1369.2
295.65 K, x1 = 0.29 | 997.283 | 1456
295.65 K, x1 = 0.3786 | 1029.84 | 1525.9
295.65 K, x1 = 0.4825 | 1061.45 | 1600
295.65 K, x1 = 0.6007 | 1088.98 | 1669.1
295.65 K, x1 = 0.6711 | 1103.21 | 1705.8
295.65 K, x1 = 0.7797 | 1122.2 | 1722.7
295.65 K, x1 = 0.8297 | 1129.83 | 1777.5
295.65 K, x1 = 0.9328 | 1143.67 | 1774.5
295.65 K, x1 = 1 | 1150.45 | 1796.8
298.15 K, x1 = 0.0492 | 841.599 | 1184.3
298.15 K, x1 = 0.0951 | 883.376 | 1247
298.15 K, x1 = 0.1987 | 951.074 | 1362.2
298.15 K, x1 = 0.29 | 995.529 | 1449.3
298.15 K, x1 = 0.3786 | 1028.18 | 1519.5
298.15 K, x1 = 0.4825 | 1059.89 | 1593.9
298.15 K, x1 = 0.6007 | 1087.51 | 1663
298.15 K, x1 = 0.6711 | 1101.72 | 1699.7
298.15 K, x1 = 0.7797 | 1120.71 | 1717
298.15 K, x1 = 0.8297 | 1128.41 | 1771.3
298.15 K, x1 = 0.9328 | 1142.24 | 1768.2
298.15 K, x1 = 1 | 1149.04 | 1790.7
300.65 K, x1 = 0.0492 | 839.407 | 1176.5
300.65 K, x1 = 0.0951 | 881.305 | 1239.5
300.65 K, x1 = 0.1987 | 949.197 | 1355.1
300.65 K, x1 = 0.29 | 993.775 | 1442.7
300.65 K, x1 = 0.3786 | 1026.52 | 1513.1
300.65 K, x1 = 0.4825 | 1058.32 | 1587.8
300.65 K, x1 = 0.6007 | 1086.03 | 1657
300.65 K, x1 = 0.6711 | 1100.3 | 1693.7
300.65 K, x1 = 0.7797 | 1119.26 | 1711.3
300.65 K, x1 = 0.8297 | 1127 | 1765.3
300.65 K, x1 = 0.9328 | 1140.81 | 1762.1
300.65 K, x1 = 1 | 1147.63 | 1784.8
303.15 K, x1 = 0.0492 | 837.209 | 1168.8
303.15 K, x1 = 0.0951 | 879.233 | 1232
303.15 K, x1 = 0.1987 | 947.318 | 1348.1
303.15 K, x1 = 0.29 | 992.018 | 1436
303.15 K, x1 = 0.3786 | 1024.86 | 1506.7
303.15 K, x1 = 0.4825 | 1056.74 | 1581.7
303.15 K, x1 = 0.6007 | 1084.54 | 1651
303.15 K, x1 = 0.6711 | 1098.87 | 1687.7
303.15 K, x1 = 0.7797 | 1117.84 | 1705.7
303.15 K, x1 = 0.8297 | 1125.59 | 1759.4
303.15 K, x1 = 0.9328 | 1139.38 | 1756.3
303.15 K, x1 = 1 | 1146.22 | 1779
305.65 K, x1 = 0.0492 | 835.006 | –
305.65 K, x1 = 0.0951 | 877.153 | –
305.65 K, x1 = 0.1987 | 945.436 | –
305.65 K, x1 = 0.29 | 990.259 | –
305.65 K, x1 = 0.3786 | 1023.19 | –
305.65 K, x1 = 0.4825 | 1055.17 | –
305.65 K, x1 = 0.6007 | 1083.06 | –
305.65 K, x1 = 0.6711 | 1097.42 | –
305.65 K, x1 = 0.7797 | 1116.4 | –
305.65 K, x1 = 0.8297 | 1124.17 | –
305.65 K, x1 = 0.9328 | 1137.95 | –
305.65 K, x1 = 1 | 1144.8 | –
